Values joined by “and” are separate entries in the source; they are usually repeats but may differ in a detail not shown here. Identical values can stand only once.
Columns and labels:
SKMEL-28 cells = assay: Cell cycle analysis by flow cytometry; format: cell-based, human; details: 5 µM DDA, 48 h
Method: Control and DDA-treated cells were fixed in 70% ethanol and then washed with PBS. Cells were incubated with 100 μg/ml RNase A for 30 min at 37 °C, permeabilized with 0.25% Tween-20, and stained with 50 μg/ml propidium iodide (PI) for 30 min at 37 °C. The DNA content of stained cells was analyzed by flow cytometry. The fraction of cells in sub-G1 phase was calculated using flowJo software (Ashland, Oregon). Data were obtained from 10^5 viable cells. […]

B16F10 cells = assay: Immunoblot densitometry (LC3-II); format: cell-based, mouse; details: 2.5 µM DDA, 24 h
Method: (§1) Immunoblotting was carried out as described previously. Proteins were separated on SDS-PAGE gels, electro-transferred onto polyvinylidene difluoride membranes and incubated overnight at 4 °C with the following antibodies: anti-Atg3, anti-Atg5 (D1G9), anti-Atg7 (D12B11), anti-Beclin (D40C5), anti-caspase-3 (Cell Signaling), anti-Bcl-2 (Millipore), anti-Bax (Millipore), anti-LC3 (Sigma-Aldrich), anti-LXRα (SantaCruz), anti-LXRβ (SantaCruz), anti-Nur77 (Active motif), anti-NOR1 (R&D systems), anti-PARP (Cell Signaling), anti-Vps34 (Cell Signaling), or anti-Actin (Millipore). For visualization, an ECL plus kit (Amersham Biosciences) was used, and chemiluminescence was measured by autoradiography (Supplementary Fig. 9). Specific bands were quantified with ImageQuant software.

primary AML cells [1] = assay: Immunoblot densitometry in primary AML cells; format: cell-based, human; details: 5 µM DDA, 24 h
Method: as §1
AML patient and normal bone marrow samples were obtained from patients in the Hematology Department of Toulouse (France), after obtaining consent in accordance with the Declaration of Helsinki[67], and according to institutional guidelines. Samples were stored at the INSERM-1037 HIMIP collection (no. DC-2008-307-CPTP1 HIMIP). For some experiments, fresh leukemic blasts recovered at diagnosis were immediately treated with DDA. In other cases, frozen cells were thawed in IMDM medium with 20% FBS. Patient characteristics are shown in supplementary data 1. Normal bone marrow cells were subjected to Ficoll-Paque density gradient separation to isolate mononuclear cells, followed by CD34+ cell separation using high-gradient magnetic-activated cell sorting, according to the manufacturer’s manual. The in vivo assays were performed with cryopreserved cells. […]
All data or images are
representative of 3 independent experiments.

HL60 cells = HL60 cells orthotopically engrafted (i.v.) into NSG mice; format: in vivo; details: for reduction of the number of HL60 cells in bone marrow and brain / reduction of HL60 cell viability in bone marrow and brain: 16 days; for reduction of HL60 cell viability in bone marrow and brain: Annexin-V
Method: The engraftment of human primary AML cells was performed on NSG mice. Briefly, human primary AML cells, HL60 cells or normal CD34+ cells were resuspended in PBS, and 0.8 × 10^6 to 2 × 10^6 viable trypan blue-negative cells were injected intravenously into NSG mice that had been previously irradiated for 24 h with 2.25 Gy. […] The viability of AML cells was established by quantifying the percentage of hCD45+CD33+Annexin-V- cells.

primary AML cells [2] = assay: Patient-derived primary AML cells engrafted into NSG mice; format: in vivo; details: three patients; 20 mg/kg/d i.p., 19 days
Method: The engraftment of human primary AML cells was performed on NSG mice. Briefly, human primary AML cells, HL60 cells or normal CD34+ cells were resuspended in PBS, and 0.8 × 10^6 to 2 × 10^6 viable trypan blue-negative cells were injected intravenously into NSG mice that had been previously irradiated for 24 h with 2.25 Gy. Two and a half weeks after the injection of human cells, mice were treated with DDA (20 mg/kg/day by IP injection) or vehicle as control for 2, 3 weeks, after which the engraftment of human AML and normal hematopoietic cells was measured in the bone marrow, spleen and brain by quantifying the percentage of hCD45+CD33+ cells by flow cytometry. The viability of AML cells was established by quantifying the percentage of hCD45+CD33+Annexin-V- cells.

AML cells = assay: Immunoblot of caspase-3 and PARP in AML cells; format: cell-based, human; details: 24 h
Method: as §1
Supplementary Fig. 6. […]
AML cells treated with DDA for 24 h in the absence or presence of 50 µM z- VAD-fmk (a
caspase inhibitor). j Effect of z-VAD-fmk on DDA-induced c ytotox icit y in KG1 and HL60 cells. […]
Images are
representative of 3 independent experim ents.

CC(C)CCC[C@@H](C)[C@H]1CC[C@H]2[C@@H]3C[C@@H](NCCc4cnc[nH]4)[C@@]4(O)C[C@@H](O)CC[C@]4(C)[C@H]3CC[C@]12C [DDA, Dendrogenin A]
Cell cycle distribution: G0/G1 (SKMEL-28 cells): 51.80%
Cell cycle distribution: G2/M (SKMEL-28 cells): 4.93%
Cell cycle distribution: S (SKMEL-28 cells): 8.99%
Cell cycle distribution: Sub G0/G1 (SKMEL-28 cells): 34.28%
LC3-II protein, densitometry (B16F10 cells; B16F10 siATG7): 0.8
LC3-II protein, densitometry (B16F10 cells; B16F10 siBECN1): 1.3
LC3-II protein, densitometry (B16F10 cells; B16F10 siNOR1 + siNur77): 0.8
LC3-II protein, densitometry (B16F10 cells; B16F10 siNOR1): 0.8
LC3-II protein, densitometry (B16F10 cells; B16F10 siNur77): 1.1
LC3-II protein, densitometry (B16F10 cells; B16F10 siSC): 2.5 and 1.8 and 2.3
LC3-II protein, densitometry (B16F10 cells; B16F10 siVPS34): 1.9
LC3-II protein, densitometry relative to vehicle (primary AML cells [1]; AML#4): 3.4
LXRβ protein, densitometry relative to vehicle (primary AML cells [1]; AML#4): 0.9
NOR1 protein, densitometry relative to vehicle (primary AML cells [1]; AML#4): 2
Nur77 protein, densitometry relative to vehicle (primary AML cells [1]; AML#4): 1.4
LC3-II protein, densitometry relative to vehicle (primary AML cells [1]; AML#5): 3
LXRβ protein, densitometry relative to vehicle (primary AML cells [1]; AML#5): 0.7
NOR1 protein, densitometry relative to vehicle (primary AML cells [1]; AML#5): 2.2
Nur77 protein, densitometry relative to vehicle (primary AML cells [1]; AML#5): 1.7
reduction of the number of HL60 cells in bone marrow and brain (HL60 cells; 20 mg/kg/day i.p.): 60.5 ± 11%
reduction of HL60 cell viability in bone marrow and brain (HL60 cells; 20 mg/kg/day i.p.): 21.9 ± 6%
reduction of the number of HL60 cells in bone marrow and brain (HL60 cells; 40 mg/kg/day p.o.): 47 ± 9%
reduction of HL60 cell viability in bone marrow and brain (HL60 cells; 40 mg/kg/day p.o.): 17.3 ± 5%
overall survival of HL60-engrafted mice (HL60 cells; 40 mg/kg/day p.o., after disease establishment): significantly improved the survival
change in AML cell viability in bone marrow and spleen compared to controls (primary AML cells [2]): −19.6 ± 7.6%
change in number of AML cells in bone marrow and spleen compared to controls (primary AML cells [2]): −57 ± 15%
cleaved PARP, densitometry (AML cells; 5 µM DDA + 50 µM z-VAD-fmk): 1.9
cleaved casp 3, densitometry (AML cells; 5 µM DDA + 50 µM z-VAD-fmk): 0.5
cleaved PARP, densitometry (AML cells; 5 µM DDA, without z-VAD-fmk): 6.1
cleaved casp 3, densitometry (AML cells; 5 µM DDA, without z-VAD-fmk): 4.3
cleaved PARP, densitometry (AML cells; 10 µM DDA + 50 µM z-VAD-fmk): 6.1
cleaved casp 3, densitometry (AML cells; 10 µM DDA + 50 µM z-VAD-fmk): 0.8
cleaved PARP, densitometry (AML cells; 10 µM DDA, without z-VAD-fmk): 10.8
cleaved casp 3, densitometry (AML cells; 10 µM DDA, without z-VAD-fmk): 5.2

From publication PMC5712521, “Dendrogenin A drives LXR to trigger lethal autophagy in cancers” (Nature Communications, 2017)
